test: Human HepG2 cell viability assay in 384 well format; format: toxicity, cell-based; set-up: dose 125 nL, time 70.5 hour; cytotoxicity at 70.5 h: concentration not given beside the values; settings: HepG2 cells, read-out: Inhibition

| Compound | cytotoxicity at 70.5 h [%] |
| --- | --- |
| O=C(NCCN1CCCCC1)c1scnc1Cl | -8.74 |
| Cc1nc(CCN2CCC(Oc3ccccc3F)CC2)cs1 | 9.73 |
| Cc1nccn1-c1cc(CNC(=O)NCC2CCCO2)ccn1 (stereo not given) | -0.7 |
| Fc1cccc(N2CCCC3(CN(Cc4ccncc4)CCO3)C2)c1 (stereo not given) | -4.69 |
| CC(CNc1nccc(C(C)C)n1)Oc1cccnc1 (stereo not given) | -6.89 |
| O=C(c1ccccc1)C1CCN(Cc2cc3c(cc2O)CCC3)CC1 | 33.9 |
| NC(=O)CN1CCOCC(Cc2ccccc2)C1 (stereo not given) | -11.7 |
| Nc1ncncc1-c1noc([C@@H]2CCCN2CCCc2ccccc2)n1 | -6.26 |
| c1cnc(N2C[C@@H]3CC[C@H](C2)N(Cc2ccsc2)C3)nc1 | -9.26 |
| COCCNC(=O)Cn1c(C)cc2nc(SC)n(CC(C)C)c(=O)c21 | 2.11 |
| Cn1cc(C(=O)CC2CCCN2C(=O)c2cccc3ncccc23)cn1 (stereo not given) | 14.5 |
| O=C(CCc1cc(Cl)no1)N1CCCCC1CCn1ccnc1 (stereo not given) | -5.27 |
| O=C(Nc1nc2c(s1)CN(S(=O)(=O)C1CC1)CC2)c1c(F)cccc1F | 3.16 |
| CCN(CC)Cc1ccc(C(=O)N2CCCCC2Cn2cccn2)o1 (stereo not given) | -13.1 |
| OC(COCc1ccco1)CN1CCc2c(ncn2C2CC2)C1 (stereo not given) | 1.85 |
| Cc1cnn(CC2CCCN2C(=O)c2cc3ccccc3[nH]c2=O)c1 (stereo not given) | 8.93 |
| Cc1c(Br)cccc1C(=O)NCC1CCNCC1 | 8.92 |
| CN(Cc1n[nH]c2c1CCC2)C(=O)CCc1cc2n(n1)CCCNC2 | -12.8 |
| O=C1NC[C@@]2(C(=O)O)CN(Cc3cccc(CN4CCOCC4)c3)C[C@@H]12 | 1.62 |
| O=C(c1ccccc1)N1CCN(C2CCc3ccc(F)cc32)CC1 (stereo not given) | -9.61 |
| O=S(=O)(c1ccccc1)N1C[C@@H]2COC[C@]2(COCC2CC2)C1 | 1.08 |
| N#Cc1cccc(NC(=O)N2CCC3(CCC(=O)N(C4CC4)C3)CC2)c1 | -2.97 |

| Compound | cytotoxicity at 70.5 h [%] |
| --- | --- |
| O=c1oc(-c2ccc(F)cc2)nn1CC1CCOC1 (stereo not given) | 16.4 |
| Cn1cnc(S(=O)(=O)NCCN2CCCCCC2=O)c1Cl | 14.4 |
| CCN(CC)c1ncc(CNC2CCc3nc(C(C)C)nn3C2)s1 (stereo not given) | -5.99 |
| N[C@@H](Cc1c[nH]cn1)C(=O)N1CCC(Oc2ccc(Cl)cc2)CC1 | 28.2 |
| O=C(Nc1ccccc1C(=O)NCCCN1CCOCC1)c1ccco1 | -6.18 |
| OC(CNCCn1cccn1)COc1cccc(C(F)(F)F)c1 (stereo not given) | -1.44 |
| CC(=O)N1CCN(CC2CCOc3ccccc3C2)CC1 (stereo not given) | -1.42 |
| O=C(O)c1cc(N2C[C@H](NC(=O)C3CCOCC3)[C@@H](C3CC3)C2)ccn1 | -11.7 |
| CC(NC(=O)NCCn1ccnc1)c1ccc2c(c1)OCCO2 (stereo not given) | -14.3 |
| Cc1cc(C)c2nc(CN3CCOC(CCO)C3)cc(O)c2c1 (stereo not given) | -4.44 |
| CCc1nc(N2CCCC(CCCOC)C2)c2cnn(C)c2n1 (stereo not given) | -5.41 |
| Cc1cc(CC(=O)N2CCN(CC(C)C)[C@@H]3CS(=O)(=O)C[C@@H]32)ccc1F | 7.77 |
| CN(C)S(=O)(=O)N1CC[C@@H]2CN(Cc3cnn(C)c3)C[C@@H]2C1 | 32.1 |
| Cn1cc(CN2C[C@@H]3CCCO[C@@H]3[C@H](N3CCCC3=O)C2)cn1 | -4.04 |
| CN1CCCC2(CCN(S(=O)(=O)c3c(Cl)nc4sccn34)C2)C1=O (stereo not given) | -5.17 |
| CCNC(=O)CNCc1c(C(C)C)nn(C)c1N1CCOCC1 | -2.6 |
| Cc1nn(C)c(C)c1CN(C)C(=O)c1cccc(CCC(C)(C)O)c1 | -0.259 |
| CN(C)C(=O)CN1CCN(c2ncccn2)[C@@H]2CS(=O)(=O)C[C@@H]21 | -3.2 |
| Cc1sc2ccccc2c1S(=O)(=O)NCCNC(=O)C(C)C | -7.05 |
| CC(C)c1nc(C2CCCN2Cc2nccn2CC(F)(F)F)no1 (stereo not given) | -8.8 |
| CCC1(CC)CC(=O)N(CC(O)c2cc(F)ccc2F)C1=O (stereo not given) | -4.77 |
| CCCS(=O)(=O)c1ccc(N2CCN(Cc3ccccc3)CC2)nn1 | -8.4 |

| Compound | cytotoxicity at 70.5 h [%] |
| --- | --- |
| CCC(C)c1noc(C2CCN(C(=O)c3ccccn3)CC2)n1 (stereo not given) | -3.62 |
| Cc1nc2c(NC(CC(C)(C)C)c3cccnc3)ncnc2o1 (stereo not given) | -10.9 |
| C/C=C(/C)C(=O)NS(=O)(=O)c1ccc(C(F)(F)F)cn1 | -18.7 |
| Cc1cccnc1[C@H](C)NC(=O)Cc1cc2c(cc1Cl)OCCO2 | 32.1 |
| Cc1cnc(N2CCc3c(cnc(C)c3C(=O)O)C2)nc1 | -2.57 |
| C[C@@H]1CN(C(=O)Nc2cccc(OC(F)F)c2)CC(C(N)=O)O1 (stereo not given in full) | -1.07 |
| O=C(c1cccc2c1OCO2)N1CCCC1Cn1cccn1 (stereo not given) | -8.17 |
| O=C(O)C(c1cccc2c1OCC2)N1CCC(N2CCSCC2)CC1 (stereo not given) | 0.963 |
| CCN(Cc1ccccc1)C1CCN(c2cc(C)nn2C)C1=O (stereo not given) | -8.27 |
| Cc1cc(C)n(C2CCCN(C(=O)c3ccc(F)cc3F)C2)n1 (stereo not given) | -0.896 |
| Cc1noc(C)c1CN1CCN(C(=O)Cn2cncn2)CC1 | -5.67 |
| Cn1c(C(=O)N2CCOCC2)nc2c1CCN(c1ncccn1)C2 | -1.44 |
| Cc1nn(C)cc1S(=O)(=O)N(C)[C@@H]1CCC[C@@H](n2ccnc2)[C@@H]1O | 19.1 |
| Cn1ncc2c(=O)[nH]c(CN3CCCc4cc(F)cc(F)c43)nc21 | -15.9 |
| CCc1ccc(CNC(=O)N2CCN(Cc3cc(C)no3)CC2)s1 | 19.6 |
| Nc1cc(N2CCCC(CO)(Cc3ccccc3F)C2)nc(N)n1 (stereo not given) | 28.8 |
| Cc1ccoc1C(=O)N1CC[C@H]2[C@@H]1CCC(=O)N2c1cccnc1 | -14.8 |
| CC(=O)c1ccc(CN2CC(Oc3ccccc3C)C2)cc1 | -1.63 |
| CCc1cn[nH]c1C1CCN(c2cc(C)c3cccc(OC)c3n2)CC1 | 0.472 |
| O=C(CN1CCCC1Cn1cncn1)NCCOc1cccc(F)c1 (stereo not given) | -14.6 |
| O=c1c(-c2ccnc(NC3CCCCC3)n2)cnc2sc(Cl)cn12 | -5.61 |
| CCN1CCc2[nH]cnc2C12CCN(c1ncc(C(=O)O)cc1Cl)CC2 | 3.78 |

| Compound | cytotoxicity at 70.5 h [%] |
| --- | --- |
| COCCN1CCCC2(CCN(c3ncnc(C)c3C)C2)C1=O (stereo not given) | 15.5 |
| Cn1cc(C(=O)Nc2ccnc(Oc3ccccc3)c2)ccc1=O | -5.49 |
| CCc1cnc(N2C[C@@H](NC(=O)c3cscn3)[C@H]3COC[C@H]32)nc1 | -11.1 |
| CCCn1cc(S(=O)(=O)N[C@H]2CN(CC(N)=O)C[C@@H]2C2CC2)cn1 | -9.29 |
| Cn1nnc2cc(C(=O)NS(=O)(=O)c3cccc(C#N)c3)ccc21 | -5.98 |
| CCCN1CCCn2nc(CNS(=O)(=O)c3cccc(C#N)c3)cc2C1 | -12.6 |
| O=C(NCCN1CCNC1=O)c1cnc(-c2cccnc2)nc1 | -3.28 |
| COc1cc(N2C[C@@H]3COC[C@]3(COCc3ccncc3)C2)ncn1 | 8.15 |
| CC(C)N1C[C@@H](CO)[C@H](c2ccccc2)S1(=O)=O | -3.46 |
| O=C(c1cccnc1)N1CCOCC2(CCN(c3ncccn3)C2)C1 (stereo not given) | -1.45 |
| COc1ccc(CN(Cc2cnc(N)nc2)CC2CCCO2)c(OC)c1 (stereo not given) | -2.54 |
| CCc1cc(NC2CCN(Cc3ccccc3F)CC2)n2nccc2n1 | -16.6 |
| O=C(NCc1cccnc1)N1CCC2(CC(=O)N(c3ccsc3)C2)C1 (stereo not given) | -6.34 |
| COc1ccccc1-c1cc(NC(=O)COCC2CC2)[nH]n1 | -4.9 |
| CC(Cc1ccc(Cl)cc1)N(C)C(=O)NCCS(C)(=O)=O (stereo not given) | 18.5 |
| COc1ccc(Br)c(C(=O)NCCNc2ccc(C(F)(F)F)cn2)c1 | -13.7 |
| Cc1ccc(C(=O)NCCNS(C)(=O)=O)c(=O)[nH]1 | -3.54 |
| O=C(c1cnccn1)N1CCc2onc(Cn3cccn3)c2C1 | -6.72 |
| N#CC1=C(N)Nn2c(nnc2-c2ccccc2Br)S1 | -19 |
| Cc1nc2cc(-c3nccn3C)nn2c(N2CCCC(CO)C2)c1C (stereo not given) | 2.86 |
| CC(C)C(=O)N1CCC(c2nc3c([nH]2)CCCNC3=O)CC1 | -6.35 |
| Cc1nc(C2CCCN(C(=O)c3ccncc3)C2)c2sccn12 (stereo not given) | 21.5 |

| Compound | cytotoxicity at 70.5 h [%] |
| --- | --- |
| Cc1ccc(C(=O)N(C)S(C)(=O)=O)cc1Cl | -1.55 |
| Cc1ccc([C@@H]2CN(S(=O)(=O)Cc3ccccc3)C[C@H]2N(C)C)cc1 | 1.88 |
| O=C(CNC(=O)Nc1c(F)cc(F)cc1-c1ccccc1)NC1CC1 | -10.3 |
| Cc1nc(C(=O)N(CC(=O)N(C)C)CC(F)(F)F)c2ccccn12 | -4.52 |
| Cc1cnc(N2C[C@@H]3[C@@H](C2)OCC(=O)N3CCN(C)C)nc1 | -3.72 |
| CN1CCCC1CCn1ccnc1-c1nc2ccccc2[nH]1 (stereo not given) | -0.748 |
| COc1cc(C(=O)N(C2CC2)C2CC(=O)NC2=O)ccc1C (stereo not given) | -0.747 |
| COC(=O)Nc1ccc(CNc2cncc(-n3cccn3)n2)cc1 | -18.2 |
| CC(C)C(NCc1ccc(Cn2cncn2)cc1)c1ccc(F)cn1 (stereo not given) | -0.795 |
| CCCC(=O)N1CCCC(c2cc3cccnc3c(O)n2)C1 (stereo not given) | -13.1 |
| CS(=O)(=O)c1ccc(NC(=O)CSc2ccc3c(c2)CCC3)cn1 | -14.4 |
| CC(C)(C)OC(=O)N1CCCN(c2nnc(C3CC3)s2)CC1 | -0.941 |
| CN(C)C(=O)c1nc2c(n1C)CCN(Cc1ccccc1)C2 | 0.767 |
| Cc1cn(-c2ccccc2)nc1NS(=O)(=O)c1cc(C(=O)O)sc1C | -18.9 |
| COCCN1CCC12CCN(C(=O)c1ccsc1)CC2 | -11.4 |
| CCN1CC(C(=O)N2CCN(c3nsc4ccccc34)CC2)CCC1=O (stereo not given) | 19.6 |
| O=C(O)C1CCN(C(=O)Cn2ccc3c(Cl)cccc32)CC1 | -12.6 |
| CCn1cc(S(=O)(=O)N(CCc2ccccc2)Cc2ccn(C)n2)cn1 | -11.1 |
| CC(=O)c1cc(CN2C[C@H]3CC[C@@H]2CN(S(=O)(=O)N(C)C)C3)cs1 | 12.5 |
| COc1cccc(CSCC2=Nc3ccccc3S(=O)(=O)N2)c1 | 3.53 |
| Cc1ccc(OCCC(=O)NC2CCc3nccn3C2)cc1 (stereo not given) | 0.164 |
| Cc1cc(C(=O)CN2C(=O)c3ccccc3CS2(=O)=O)c(C)[nH]1 | -6.26 |

Source: ChEMBL document CHEMBL3507680, “University of Dundee, Gates Library screen for HepG2 cell viability”
